Data on 14 molecules can be found in paper PMC8347176, “Novel High Affinity Sigma-1 Receptor Ligands from Minimal Ensemble Docking-Based Virtual Screening” (International Journal of Molecular Sciences, 2021).

Counter-ions that a name gives are not always drawn.

Test system in the first data set: not given
Test: not given
Details: not given
Turning to `Cl.NC(CC(=O)NCc1cc(F)cc(C(F)(F)F)c1)c1ccccc1` (stereo not shown) [L4, 3-Amino-N-(3-fluoro-5-(trifluoromethyl)benzyl]-3-phenylpropanamide hydrochloride], the melting point lay within 180 to 182 °C.

The target in the next data set is T1, sigma-1 receptor (S1R) (Cavia porcellus, UniProt Q60492).
T1 construct: Guinea pig liver tissue preparation abundantly contains sigma-1 receptor as compared to other tissues; from tissue; host or cells: guinea pig liver membrane homogenate
T1 sequence (Q60492 whole entry): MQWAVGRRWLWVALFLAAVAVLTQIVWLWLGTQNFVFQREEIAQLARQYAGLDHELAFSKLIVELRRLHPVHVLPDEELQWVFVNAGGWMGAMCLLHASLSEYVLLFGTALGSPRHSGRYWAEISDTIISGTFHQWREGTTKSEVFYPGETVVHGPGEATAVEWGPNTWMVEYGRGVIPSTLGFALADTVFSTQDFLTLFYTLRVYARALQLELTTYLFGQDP
As to the kind of experiment: Sigma-1 receptor competitive radioligand binding assay with [3H](+)-pentazocine in guinea pig liver membranes. To be noted: read-out: Measured Ki. As for the experimental part:
Male Wistar-Harlan rats (n = 10, 225–250 g) and guinea pigs (n = 10, 350–400 g) were handled according to the European Communities Council Directive (2010/63/EU) and to the Regulations on Animal Protection (40/2013. (II. 14.) Korm. r.) of Hungary. The researchers did the best effort to minimize the number of animals and their suffering. Preparation of guinea pig and rat liver homogenates was performed according to a previous method with a slight modification. Euthanized male guinea pig and rats were killed by decapitation, and their livers were removed rapidly. Minced fresh livers were homogenized in ice-cold homogenization buffer (10 mM NaH2PO4 pH 7.4, 0.32 M sucrose, 1 mM MgSO4, 10 μg/mL leupeptin, 1 μg/mL pepstatin A, 5 μg/mL soybean trypsin inhibitor, 0.5 mM EGTA, 1 mM AEBSF) using a Braun Teflon-glass homogenizer at the highest rpm for 30 s. The homogenate was centrifuged at 17,000× g for 10 min (4 °C). Supernatant was recentrifuged at 100,000× g for 60 min at 4 °C. The resulting pellet was resuspended in 10 volumes homogenization buffer, homogenized by a glass homogenizer and stored in aliquots at −80 °C. The protein content of the samples was measured by the Bradford method and samples were diluted in assay buffer to obtain the appropriate amount for the assay.
Binding assays for the sigma-1 receptor were performed at 37 °C for 90 min in a 50 mM Tris–HCl binding buffer (pH 8.0) in plastic tubes in a total assay volume of 1 mL that contained 0.5 mg/mL of a membrane protein. […] The incubation was terminated by diluting the samples with an ice-cold wash buffer (50 mM of Tris–HCl, pH 8.0), followed by repeated washing and rapid filtration through Whatman GF/B glass fiber filters (Whatman Ltd., Maidstone, UK) presoaked with 0.1% polyethyleneimine. Filtration was performed with a 24-well Brandel Cell Harvester (Gaithersburg, MD, USA). Filters were air-dried and immersed into Ultima Gold MV scintillation cocktail, and then radioactivity was measured with a TRI-CARB 2100TR liquid scintillation analyzer (Packard, Perkin Elmer, Waltham, MA, USA).
(§1) The results of the competition binding studies are reported as means ± S.E.M. of at least three independent experiments each performed in duplicate. In competition binding studies, the inhibitory constants (Ki) were calculated from the inflection points of the displacement curves using nonlinear least-square curve fitting and the Cheng–Prusoff equation, Ki = EC50/(1 + [ligand]/Kd). All data and curves were analyzed by GraphPad Prism 5.0 (San Diego, CA, USA).
On to `CC(CN)C(=O)NCc1cccc(C(F)(F)F)c1F` (stereo not shown) [L8, 3-Amino-N-(2-fluoro-3-(trifluoromethyl)benzyl]-2-methylpropanamide trifluoroacetate], for which the inhibition constant (Ki) was 1530 nM.
On the same count and under the same terms, the result for `CCOc1cc2c(cc1OCC)[C@H]1CCN[C@@H](c3ccc(N(C)C)cc3)N1CC2` (relative stereo) [L10, (4R*,11bR*)-9,10-Diethoxy-4-[4-(dimethylamino)phenyl]-1,3,4,6,7,11b-hexahydro-2H-pyrimido[6,1-a]isoquinoline] reads 2150 nM.
Consider `NC(CC(=O)NCc1cccc(C(F)(F)F)c1F)c1ccccc1` (stereo not shown) [L2, 3-Amino-N-(2-fluoro-3-(trifluoromethyl)benzyl]-3-phenylpropanamide hydrochloride], for which the Ki worked out at 91 nM.
Still for that read-out and setting: then `Cl.NC(CC(=O)NCc1cc(F)cc(C(F)(F)F)c1)c1ccccc1` (stereo not shown) [L4, 3-Amino-N-(3-fluoro-5-(trifluoromethyl)benzyl]-3-phenylpropanamide hydrochloride], with 420 nM; and `COc1cc2c(cc1OC)C(CCNCc1ccccc1)NCC2` (stereo not shown) [L1, N-Benzyl-6,7-dimethoxy-1,2,3,4-tetrahydro-1-isoquinolineethanamine dihydrochloride], with 32 nM; and `NN1C(=O)C2C3C=CC(C3)C2NC12CCN(Cc1ccccc1)CC2` (racemic) [L5, (±)-diendo-3′-amino-1-benzyl-5′,8′-methano-4′a,5′,8′,8′a-tetrahydrospiro[piperidine-4,2′(1′H)-quinazolin]-4′(3′H)-one], with 463 nM.
In the case of `CC1(C)C2CC(O)C(O)(CNCc3ccccc3)CC21` [L7, (1S,3R,4R,6R)-3-(benzylamino)methyl)-7,7-dimethylbicyclo[4.1.0]heptane-3,4-diol], the Ki came out at 1380 nM.
Still for that read-out and setting: then `CCOc1cc2c(cc1OCC)[C@H]1[C@H](CSc3ccc(Cl)cc3)CN1CC2` (relative stereo) [L12, (1R*,9bR*)-1-{[(4-Chlorophenyl)thio]methyl}-7,8-diethoxy-1,4,5,9b-tetrahydro-2H-azeto[2,1a]-isoquinoline], with 3270 nM.
Consider `O=C(NCC1NCCc2c1[nH]c1ccccc21)OCc1ccccc1` (stereo not shown) [L9, N-Benzyloxycarbonyl-(2,3,4,9-tetrahydro-1H-pyrido[3,4-b]indol-1-yl)methanamine], for which the Ki was determined as 1720 nM.
Same read-out and setting: then `COc1ccc(OCC(O)CN2CCc3ccccc3C2)cc1` (stereo not shown) [L3, 1-[(4-Methoxyphenoxy)methyl]-2-(1,2,3,4-tetrahydroisoquinolin-2-yl)ethanol], with 110 nM; and `Cn1c2c(c3ccccc31)CCNC2CNC(=O)OCc1ccccc1` (stereo not shown) [L6, N-Benzyloxycarbonyl-(9-methyl-2,3,4,9-tetrahydro-1H-pyrido[3,4-b]indol-1-yl)methanamine], with 1040 nM.

The data set is the same for the next values; noted with them: read-out: S1R Ki ± S.E.M.
Regarding `COCCCC/C(=N\OCCN)c1ccc(C(F)(F)F)cc1` [fluvoxamine, reference compound], the Ki was found to be 31 ± 3 nM.

The next data set has as its target T2, sigma-2 receptor (S2R) (Rattus norvegicus, UniProt Q5U3Y7).
T2 construct: from tissue; host or cells: rat (male Wistar-Harlan) liver membrane homogenate
T2 sequence (Q5U3Y7 1-176): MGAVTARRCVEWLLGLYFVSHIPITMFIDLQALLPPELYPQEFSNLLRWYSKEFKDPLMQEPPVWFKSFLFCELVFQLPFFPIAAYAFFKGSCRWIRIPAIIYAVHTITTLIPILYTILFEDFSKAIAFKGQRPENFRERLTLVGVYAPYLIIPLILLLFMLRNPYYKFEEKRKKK
As to the kind of experiment: Sigma-2 receptor competitive radioligand binding assay with [3H]DTG in rat liver membranes, S1R masked with 100 nM (+)-pentazocine.
Details: not given
As for the experimental part: Male Wistar-Harlan rats (n = 10, 225–250 g) and guinea pigs (n = 10, 350–400 g) were handled according to the European Communities Council Directive (2010/63/EU) and to the Regulations on Animal Protection (40/2013. (II. 14.) Korm. r.) of Hungary. The researchers did the best effort to minimize the number of animals and their suffering. Preparation of guinea pig and rat liver homogenates was performed according to a previous method with a slight modification. Euthanized male guinea pig and rats were killed by decapitation, and their livers were removed rapidly. […] The protein content of the samples was measured by the Bradford method and samples were diluted in assay buffer to obtain the appropriate amount for the assay.
as §1
Take `CC(C)=CCN1CC[C@]2(C)c3cc(O)ccc3C[C@H]1[C@H]2C` [(+)-pentazocine]: the “displacement of [3H]DTG (partial)” value is listed as 70–80%.
On the same count and under the same terms, then `COCCCC/C(=N\OCCN)c1ccc(C(F)(F)F)cc1` [fluvoxamine, reference compound], with 70–80%.

For a further data set, the system named is S1R.
Test: not given
Details: method as in PMID 16463398. The following applies: cited from earlier work.
For `COc1cc(CCN2CCN(CCCc3ccccc3)CC2)ccc1OCCF` [fluoroethyl analog of S1R agonist SA4503], the KiS2R/KiS1R is reported as 14.1.
